Source: patent US20260374818A1, “CATIONIC PEPTIDES WITH BROAD SPECTRUM ACTIVITY” (priority 2023, published 2026)
In brackets after ≈: the same amount, converted by molar mass. Where a SMILES comes first, the peptide text is derived from it. [ ]: non-standard residue; d: D form.

How the values were obtained:
[1] = tested on: Staphylococcus epidermidis; assay: MIC (broth microdilution) of peptides, S. epidermidis; type: cell-based; settings: mode of three biological replicates
Procedure: (§1) Minimal inhibitory concentration (MIC) against planktonic bacteria: The MIC of the synthetic peptides was determined in Mueller-Hinton broth (MHB) using the broth microdilution method described previously [Wiegand, I., Hilpert, K., & Hancock, R. E. (2008). Agar and broth dilution methods to determine the minimal inhibitory concentration (MIC) of antimicrobial substances. Nature Protocols, 3(2), 163-175]. Briefly, 10 μl of a 10× concentrated peptide solution was placed in the bottom of a well in a 96-well polypropylene round bottom plate (Corning Inc.). A bacterial suspension of ~5×10^5 CFU/ml was prepared from an overnight culture and 90 μl of this was added to each well. […] Bacteria tested included P. aeruginosa PAO1, MRSA USA300 LAC, Staphylococcus haemolyticus, Staphylococcus epidermidis, Klebsiella pneumoniae and Streptococcus salivarius.
(§2) Finally, the AB103-D derivatives that were the least aggregation prone and which produced the lowest toxic effects in vivo were evaluated for their direct antibacterial activity towards several pathogens of clinical relevance using a standard minimum inhibitory concentration (MIC) assay [Wiegand, I., Hilpert, K., & Hancock, R. E. (2008). Agar and broth dilution methods to determine the minimal inhibitory concentration (MIC) of antimicrobial substances. Nature Protocols, 3(2), 163-175]. Specifically, peptides AB110-D, AB111-D, AB114-D and AB115-D were tested against P. aeruginosa PAO1, MRSA USA 300, Staphylococcus haemolyticus, Staphylococcus epidermidis, Klebsiella pneumoniae and Streptococcus salivarius and compared against the antibacterial activity of DJK-5 and AB103-D (Table 7). Overall, the antibacterial potency of all of the AB103-D derivatives was stronger than that seen for DJK-5, particularly in the case of the Gram-negative pathogens P. aeruginosa and K. pneumoniae. […]

MRSA USA300 biofilms = assay: Biofilm inhibition by >95% pure peptides (crystal violet), MRSA; type: cell-based, methicillin resistant Staphylococcus aureus; settings: MRSA USA300 biofilms, >95% pure peptides, 10% TSB + 0.1% glucose
P. aeruginosa PAO1 = assay: MIC (broth microdilution) of peptides, P. aeruginosa; type: cell-based, Pseudomonas aeruginosa; settings: mode of three biological replicates
Procedure: as §1, §2

[2] = tested on: MRSA USA300 planktonic cells; assay: Planktonic growth inhibition by pure AB103-D derivatives, MRSA; type: cell-based, methicillin resistant Staphylococcus aureus
Procedure: The effect of peptide on bacterial and biofilm growth was assessed using the biofilm inhibition assay [Haney, E. F., Trimble, M. J., & Hancock, R. E. W. (2021) FIGS. 20A-20D. Microtiter plate assays to assess antibiofilm activity against bacteria. Nature Protocols, 16(5), 2615-2632]. The effect of peptide on planktonic growth and biofilm growth of MRSA USA300 (FIG. 20A, FIG. 20C) and P. aeruginosa PAO1 (FIGS. 20B, 20D) was assessed and compared to the activity seen for AB103-D (gray stars) and DJK5 (gray open circles). Data shown are the average of three biological replicates. Error bars have been omitted for clarity. […]. The results indicated enhanced antibiofilm and antibacterial activity of AB103-D derivatives compared to DJK5.

[3] = tested on: Staphylococcus haemolyticus; assay: MIC (broth microdilution) of peptides, S. haemolyticus; type: cell-based; settings: mode of three biological replicates
Procedure: as §1, §2

[4] = Subdermal murine toxicity model; settings: for Clinical score: 1 hour after subcutaneous administration, comparator DJK-5; for Average cyst size compared to DJK-5: 16 hours after administration, 4 mg/kg
Procedure: FIGS. 14A-14B show murine subdermal toxicity assessment of AB103-D derived peptides. Clinical scores were recorded for each peptide treated mouse one hour after peptide administration (FIG. 14A). […] The presence of a cyst or lesion was recorded 16 hours after peptide administration and the size of the cyst was measured using calipers (FIG. 14B). Data shown are the mean of two independent replicates at a peptide dose of 4 mg/kg.
Subdermal murine toxicity model: A subdermal toxicity mouse model was used to evaluate whether peptides induced localized toxicity of treated cutaneous tissue. Mice were anesthetized with 2.5-3% isoflurane and their fur was removed by shaving followed by application of a chemical depilatory. […] Mice were visually assessed and received clinical scores for a battery of signs or symptoms (activity/behaviour change, appearance/grooming, hydration, pain, cyst formation), for which a score of zero was given to animals that appeared normal. Animals were weighed and clinical scores were totalled. Following an overnight (16 h) incubation, mice were scored and weighed then euthanized with CO2 followed by cervical dislocation. Mice were imaged and cysts (swollen, inflamed tissue) were measured using a caliper. Animal experiments were performed in accordance with the Canadian Council on Animal Care (CCAC) guidelines and were approved by the University of British Columbia Animal Care Committee. Female CD-1 mice were purchased from Charles River Laboratories, Inc. (Wilmington, MA). All mice were 8 weeks of age and weighed 25±5 g at the time of the experiment. Animals were group housed in cohorts of three to four littermates. Standard animal husbandry practices were employed.

MRSA USA 300 = assay: MIC (broth microdilution) of peptides, MRSA; type: cell-based, methicillin resistant Staphylococcus aureus; settings: MRSA USA300; mode of three biological replicates
Procedure: as §1, §2

Klebsiella pneumoniae = assay: MIC (broth microdilution) of peptides, K. pneumoniae; type: cell-based; settings: mode of three biological replicates
Procedure: as §1, §2

Streptococcus salivarius = assay: MIC (broth microdilution) of peptides, S. salivarius; type: cell-based; settings: mode of three biological replicates
Procedure: as §1, §2

[5] = tested on: P. aeruginosa PAO1 biofilms; assay: Biofilm inhibition by SPOT-synthesized AB103-D variants (crystal violet), P. aeruginosa; type: cell-based, Pseudomonas aeruginosa; settings: P. aeruginosa PAO1, SPOT peptides
[6] = tested on: P. aeruginosa PAO1 biofilms; settings: P. aeruginosa PAO1 biofilms; >95% pure peptides; crystal violet; BM2 minimal media
[7] = tested on: MRSA biofilms (USA300 LAC); settings: MRSA biofilms, SPOT peptides
[8] = tested on: peripheral blood mononuclear cells (PBMCs); assay: Cytotoxicity (LDH release), PBMCs
[9] = Peptide aggregation in RPMI + 10% FBS with PBMCs (microscopy); type: physicochemical; settings: overnight
Procedure: Peptide Aggregation: Peptide aggregation was assessed qualitatively by examining samples of peptides mixed with PBMCs following overnight incubation at 37 °C and 5% CO2. All samples were prepared in RPMI media containing 10% FBS the same manner as the cytotoxicity assays described above. Visualization of aggregates was done using a Nikon Eclipse TS100 Inverted Microscope at 10× magnification.
In aggregation studies, peptides were added to PBMCs in RPMI media containing 10% FBS and incubated overnight at 37 °C in 5% CO2.
The peptides were also evaluated for their tendency to aggregate when added to RPMI tissue culture media containing 10% fetal bovine serum in the presence of PBMCs. Peptides were added to PBMCs in RPMI media containing 10% FBS and incubated overnight at 37 °C in 5% CO2. […] Compared to a highly aggregation prone peptide, 1018 [Haney, E. F., et al. (2017). Aggregation and its influence on the immunomodulatory activity of synthetic innate defense regulator peptides.
As with the DJK-5 derivatives above, the AB103-D derivatives were evaluated for their tendency to aggregate when added to RPMI tissue culture media containing 10% fetal bovine serum in the presence of PBMCs. Peptides were added to PBMCs in RPMI media containing 10% FBS and incubated overnight at 37 °C in 5% CO2.

[10] = tested on: 3-day-old oral plaque (multispecies) biofilms; assay: Oral plaque biofilm model, long-term (1-3 days) exposure, dead cell volume; type: cell-based; settings: 10 μg/mL, 1 or 3 days (FIG. 10)
[11] = tested on: 3-day-old oral plaque biofilms; assay: Oral plaque biofilm model, brief (1 minute) exposure, dead cell volume; type: cell-based; settings: 10 μg/mL, 1 minute (FIG. 11)
red blood cells = assay: Hemolysis; type: cell-based, human; settings: 4 hours
Procedure: Hemolysis: Peptide induced hemolysis was evaluated according to methods described previously [Hilchie, A. L., et al. (2016). Mastoparan is a membranolytic anti-cancer peptide that works synergistically with gemcitabine in a mouse model of mammary carcinoma. Biochimica Et Biophysica Acta, 1858(12), 3195-3204]. Briefly, red blood cells were obtained, with human ethics approval, from the blood of healthy volunteers collected in a sodium heparin tube and then rinsed three times in PBS, centrifuging between washes, to obtain the hematocrit (100% RBC). A 2.5% RBCs suspension was exposed to peptide at varying concentrations and incubated at 37 C in a 5% CO2 humidified atmosphere for 4 hours. Supernatants were collected following centrifugation (1100 rpm) and transferred to a flat bottom microtitre plate. The absorbance (490 nm) of each supernatant was measured on a BioTek Epoch Microplate Spectrophotometer. Percent hemolysis was calculated by comparing the absorbance arising from peptide treated cells to RBCs treated with […] (0% hemolysis) or lysed with 1% Triton X-100 (100% hemolysis).

SMILES | MIC [1] [µg/mL] | minimum inhibitory concentration of peptide that inhibited at least 90% of biofilm growth (MBIC90) (MRSA USA300 biofilms) [µM] | MIC (P. aeruginosa PAO1) [µg/mL] | Planktonic growth inhibition [2] | MIC [3] [µg/mL] | Clinical score [4] | Average cyst size compared to DJK-5 [4] | MIC (MRSA USA 300) [µg/mL] | MIC (Klebsiella pneumoniae) [µg/mL] | MIC (Streptococcus salivarius) [µg/mL] | Activity against PAO1 biofilms compared to AB103-D [5] | minimum inhibitory concentration of peptide that inhibited at least 90% of biofilm growth (MBIC90) [6] [µM] | Better activity vs. MRSA cf. AB103-D [7] [fold] | Cytotoxicity (LDH) [8] | Peptide aggregation ([9]; 200 μg/ml or highest concentration) | Killing of oral plaque biofilms, long-term exposure [10] | Killing of oral plaque biofilms, brief exposure [11] | Hemolysis (red blood cells) | Peptide aggregation ([9]; 50 μg/ml)
CC[C@@H](C)[C@@H](NC(=O)[C@@H](C)NC(=O)[C@@H](CCCNC(=N)N)NC(=O)[C@@H](Cc1c[nH]c2ccccc12)NC(=O)[C@@H](CCC(N)=O)NC(=O)[C@H](NC(=O)[C@@H](CCCNC(=N)N)NC(=O)[C@@H](Cc1c[nH]c2ccccc12)NC(=O)[C@H](NC(=O)[C@@H](CCCNC(=N)N)NC(=O)[C@H](NC(=O)[C@H](N)CCCNC(=N)N)C(C)C)C(C)C)C(C)C)C(N)=O [AB111-D, rvrvwrvqwrai] (H-[dR][dV][dR][dV][dW][dR][dV][dQ][dW][dR][dA][dI]-NH2) | 0.8 (≈ 0.493 µM) | 0.5 | 2 (≈ 1.23 µM) | among the most active against planktonic cells | 0.8 (≈ 0.493 µM) | < 2 | smaller than those induced by DJK-5 | 0.8 (≈ 0.493 µM) | 0.8 (≈ 0.493 µM) | 0.8 (≈ 0.493 µM) | activity superior to that of AB103-D | 4 |  |  |  |  |  |  | 
CC[C@@H](C)[C@@H](NC(=O)[C@@H](C)NC(=O)[C@@H](CCCNC(=N)N)NC(=O)[C@@H](Cc1c[nH]c2ccccc12)NC(=O)[C@@H](CCCCN)NC(=O)[C@H](NC(=O)[C@@H](CCCNC(=N)N)NC(=O)[C@H](NC(=O)[C@H](NC(=O)[C@@H](CCCNC(=N)N)NC(=O)[C@H](NC(=O)[C@H](N)CCCNC(=N)N)C(C)C)C(C)C)[C@H](C)CC)C(C)C)C(N)=O [AB114-D, rvrvirvkwrai] (H-[dR][dV][dR][dV][dI][dR][dV][dK][dW][dR][dA][dI]-NH2) | 0.4 (≈ 0.258 µM) | 0.5 | 2 (≈ 1.29 µM) | among the most active against planktonic cells | 0.8 (≈ 0.516 µM) | < 2 | smaller than those induced by DJK-5 | 0.8 (≈ 0.516 µM) | 0.8 (≈ 0.516 µM) | 0.8 (≈ 0.516 µM) |  | 8 | ~2 |  |  |  |  |  | 
CC[C@@H](C)[C@@H](NC(=O)[C@@H](C)NC(=O)[C@@H](CCCNC(=N)N)NC(=O)[C@@H](Cc1c[nH]c2ccccc12)NC(=O)[C@@H](CCC(N)=O)NC(=O)[C@H](N)C(C)C)C(=O)N[C@@H](C(=O)N[C@@H](C(=O)N[C@H](CCCNC(=N)N)C(=O)N[C@@H](C(=O)N[C@@H](C(=O)N[C@H](CCCNC(=N)N)C(N)=O)[C@H](C)CC)C(C)C)C(C)C)[C@H](C)CC [AB106-D, vqwraiivrvir-NH2] (H-[dV][dQ][dW][dR][dA][dI][dI][dV][dR][dV][dI][dR]-NH2) |  |  |  |  |  |  |  |  |  |  |  |  |  | only marginally toxic at the highest peptide concentration evaluated | marginal peptide aggregation | activity comparable to peptide DJK-5 | comparable to or better than peptide DJK-5 | only marginally toxic at the highest peptide concentration evaluated | 
CC[C@@H](C)[C@@H](NC(=O)[C@@H](C)NC(=O)[C@@H](CCCNC(=N)N)NC(=O)[C@@H](Cc1c[nH]c2ccccc12)NC(=O)[C@@H](CCC(N)=O)NC(=O)[C@H](NC(=O)[C@@H](CCCNC(=N)N)NC(=O)[C@H](NC(=O)[C@H](NC(=O)[C@@H](CCCNC(=N)N)NC(=O)[C@H](NC(=O)[C@H](N)CCCCN)C(C)C)C(C)C)[C@H](C)CC)C(C)C)C(N)=O [AB117-D, kvrvirvqwrai] (H-[dK][dV][dR][dV][dI][dR][dV][dQ][dW][dR][dA][dI]-NH2) |  | 0.5 |  |  |  | < 2 |  |  |  |  | activity superior to that of AB103-D | 8 | ~2 |  |  |  |  |  | slightly
